Columns and labels:
[1] = target: T1, Recombinant STAT6 protein (STAT6(W123-T658)) (Homo sapiens, UniProt P42226); experiment: STAT6 Fluorescence Polarization (FP) Assay; format: binding; conditions: STAT6(W123-T658) 250 nM, probe 5-FAM-ApYKPFQDLI-NH2 2 nM, 45-minute incubation
T1 construct: STAT6(W123-T658)
T1 sequence (P42226 123-658): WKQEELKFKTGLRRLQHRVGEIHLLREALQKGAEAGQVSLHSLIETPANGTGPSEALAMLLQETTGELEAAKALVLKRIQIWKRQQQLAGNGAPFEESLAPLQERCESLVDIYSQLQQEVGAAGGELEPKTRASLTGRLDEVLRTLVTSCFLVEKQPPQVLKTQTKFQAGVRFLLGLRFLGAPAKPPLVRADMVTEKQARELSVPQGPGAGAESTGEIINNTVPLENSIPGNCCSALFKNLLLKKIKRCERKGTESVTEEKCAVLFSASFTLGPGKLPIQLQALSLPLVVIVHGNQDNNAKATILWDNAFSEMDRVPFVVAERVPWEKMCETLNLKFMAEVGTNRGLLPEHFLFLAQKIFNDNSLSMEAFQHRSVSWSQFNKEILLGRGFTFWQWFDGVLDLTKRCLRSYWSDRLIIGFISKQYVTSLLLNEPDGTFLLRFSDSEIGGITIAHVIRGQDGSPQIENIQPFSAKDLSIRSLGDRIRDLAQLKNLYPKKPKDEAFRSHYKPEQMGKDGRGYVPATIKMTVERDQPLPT
Experimental: STAT6 Fluorescence Polarization (FP) Assay
An FP assay was developed to determine IC50 values for test substances. Recombinant STAT6 protein (STAT6(W123-T658)) at 250 nM was combined with a fluorescently labeled, phosphotyrosine peptide probe (5-FAM-ApYKPFQDLI-NH2) at 2 nM in FP buffer (10 mM HEPES pH 7.4, 50 mM NaCl, 1 mM EDTA, 0.05% Tween 20, 2 mM DTT). 50 μL of STAT6-probe mixture was added to serial diluted compounds in black, 96-well plates (Greiner BioOne 655076) to a final concentration of 1% DMSO. Reaction components were mixed, and FP was measured after 45-minute incubation at room temperature using a Tecan Spark multimode plate reader. FP signal (mP) was plotted against the log concentration of the test substances and IC50 values were calculated by nonlinear regression analysis using GraphPad Prism software. For STAT6 FP assay, A=≤300 nM; B=>300-3000 nM; C=>3-30 μM; and D=>30 μM.

[2] = target: T2, Recombinant STAT3 protein (STAT3(G127-I722)) (Homo sapiens, UniProt P40763); experiment: STAT3 Fluorescence Polarization (FP) Assay; format: binding; conditions: STAT3(G127-I722) 25 nM, probe 5-FAM-GpYLPQTV-NH2 2 nM, 45-minute incubation
T2 construct: STAT3(G127-I722)
T2 sequence (P40763 127-722, species assumed): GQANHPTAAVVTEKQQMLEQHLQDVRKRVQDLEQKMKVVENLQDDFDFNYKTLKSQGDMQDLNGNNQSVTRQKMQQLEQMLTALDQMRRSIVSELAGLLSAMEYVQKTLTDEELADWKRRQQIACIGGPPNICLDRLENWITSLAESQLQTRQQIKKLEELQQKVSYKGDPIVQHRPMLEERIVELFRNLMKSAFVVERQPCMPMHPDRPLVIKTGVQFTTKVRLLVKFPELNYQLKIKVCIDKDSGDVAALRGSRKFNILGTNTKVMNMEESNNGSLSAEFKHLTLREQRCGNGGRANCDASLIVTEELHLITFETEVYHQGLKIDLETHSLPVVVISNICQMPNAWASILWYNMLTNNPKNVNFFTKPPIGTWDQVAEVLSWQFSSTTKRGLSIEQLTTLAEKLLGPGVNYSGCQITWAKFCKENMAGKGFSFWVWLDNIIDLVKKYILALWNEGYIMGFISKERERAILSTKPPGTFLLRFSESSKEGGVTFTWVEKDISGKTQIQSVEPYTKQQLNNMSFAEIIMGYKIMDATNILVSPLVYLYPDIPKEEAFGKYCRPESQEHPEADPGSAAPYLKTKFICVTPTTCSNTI
Experimental: STAT3 Fluorescence Polarization (FP) Assay
An FP assay was developed to determine IC50 values for test substances. Recombinant STAT3 protein (STAT3(G127-I722)) at 25 nM was combined with a fluorescently labeled, phosphotyrosine peptide probe (5-FAM-GpYLPQTV-NH2) at 2 nM in FP buffer (10 mM HEPES pH 7.4, 50 mM NaCl, 1 mM EDTA, 0.05% Tween 20, 2 mM DTT). 50 μL of STAT3-probe mixture was added to serial diluted compounds in black, 96-well plates (Greiner BioOne 655076) to a final concentration of 1% DMSO. Reaction components were mixed, and FP was measured after 45-minute incubation at room temperature using a Tecan Spark multimode plate reader. FP signal (mP) was plotted against the log concentration of the test substances and IC50 values were calculated by nonlinear regression analysis using GraphPad Prism software. For STAT3 FP assay, A=≤100 nM; B=>100-1000 nM; C=>1-10 μM; and D=>10 μM.

IC50 [1]	IC50 [2]	Structure (SMILES)
> 30 µM	100 to 1000 nM	O=C(N[C@H]1C[C@@H]2C[C@@H]2C[C@H]2CC[C@@H](C(=O)N3CC(n4ccnc4)C3)N2C1=O)c1cc2cc(CP(=O)(O)O)ccc2s1 [Compound 24, ((2-(((3S,6S,7aS,8aR,9aR)-3-(3-(1H-imidazol-1-yl)azetidine-1-carbonyl)-5-oxodecahydro-1H-cyclopropa[d]pyrrolo[1,2-a]azocin-6-yl)carbamoyl)benzo[b]thiophen-5-yl)methyl)phosphonic acid]
> 30 µM	100 to 1000 nM	O=C(N[C@H]1C[C@H]2C[C@H]2C[C@H]2CC[C@@H](C(=O)N3CC(n4ccnc4)C3)N2C1=O)c1cc2cc(CP(=O)(O)O)ccc2s1 [Compound 25, ((2-(((3S,6S,7aR,8aS,9aR)-3-(3-(1H-imidazol-1-yl)azetidine-1-carbonyl)-5-oxodecahydro-1H-cyclopropa[d]pyrrolo[1,2-a]azocin-6-yl)carbamoyl)benzo[b]thiophen-5-yl)methyl)phosphonic acid]
0.3 to 3 µM	< 100 nM	NC(=O)Cc1cc(-c2ccccc2)ccc1NC(=O)[C@@H]1CC[C@@H]2C[C@H]3C[C@H]3C[C@H](NC(=O)c3cc4cc(C(F)(F)P(=O)(O)O)ccc4s3)C(=O)N21 [Compound 26, ((2-(((3S,6S,7aS,8aR,9aR)-3-((3-(2-amino-2-oxoethyl)-[1,1′-biphenyl]-4-yl)carbamoyl)-5-oxodecahydro-1H-cyclopropa[d]pyrrolo[1,2-a]azocin-6-yl)carbamoyl)benzo[b]thiophen-5-yl)difluoromethyl)phosphonic acid]
3 to 30 µM	100 to 1000 nM	COC1(c2nccn2C)CN(C(=O)[C@@H]2CC[C@@H]3C[C@@H]4[C@H](C[C@H](NC(=O)c5cc6cc(C(F)(F)P(=O)(O)O)ccc6s5)C(=O)N32)C4(F)F)C1 [Compound 29, ((2-(((3S,6S,7aS,8aR,9aR)-8,8-difluoro-3-(3-methoxy-3-(1-methyl-1H-imidazol-2-yl)azetidine-1-carbonyl)-5-oxodecahydro-1H-cyclopropa[d]pyrrolo[1,2-a]azocin-6-yl)carbamoyl)benzo[b]thiophen-5-yl)difluoromethyl)phosphonic acid]
3 to 30 µM	< 100 nM	O=C(N[C@H]1C[C@H]2[C@@H](C[C@H]3CC[C@@H](C(=O)N4CC(C(=O)N5CCOCC5)C4)N3C1=O)C2(F)F)c1cc2cc(C(F)(F)P(=O)(O)O)ccc2s1 [Compound 30, ((2-(((3S,6S,7aS,8aR,9aR)-8,8-difluoro-3-(3-(morpholine-4-carbonyl)azetidine-1-carbonyl)-5-oxodecahydro-1H-cyclopropa[d]pyrrolo[1,2-a]azocin-6-yl)carbamoyl)benzo[b]thiophen-5-yl)difluoromethyl)phosphonic acid]
3 to 30 µM	< 100 nM	O=C(N[C@H]1C[C@H]2[C@@H](C[C@H]3CC[C@@H](C(=O)N4CC(c5cccnc5)C4)N3C1=O)C2(F)F)c1cc2cc(C(F)(F)P(=O)(O)O)ccc2s1 [Compound 31, ((2-(((3S,6S,7aS,8aR,9aR)-8,8-difluoro-5-oxo-3-(3-(pyridin-3-yl)azetidine-1-carbonyl)decahydro-1H-cyclopropa[d]pyrrolo[1,2-a]azocin-6-yl)carbamoyl)benzo[b]thiophen-5-yl)difluoromethyl)phosphonic acid]
0.3 to 3 µM	< 100 nM	O=C(N[C@H]1C[C@@H]2C[C@@H]2C[C@H]2CC[C@@H](C(=O)Nc3ccc(-c4ccccc4)cc3)N2C1=O)c1cc2cc(C(F)(F)P(=O)(O)O)ccc2s1 [Compound 32, ((2-(((3S,6S,7aS,8aR,9aR)-3-([1,1′-biphenyl]-4-ylcarbamoyl)-5-oxodecahydro-1H-cyclopropa[d]pyrrolo[1,2-a]azocin-6-yl)carbamoyl)benzo[b]thiophen-5-yl)difluoromethyl)phosphonic acid]
> 30 µM	100 to 1000 nM	CC(c1ccc2sc(C(=O)N[C@H]3C[C@@H]4C[C@@H]4C[C@H]4CC[C@@H](C(=O)N5CC(C(=O)N6CCOCC6)C5)N4C3=O)cc2c1)P(=O)(O)O (stereo partly drawn) [Compound 35, (1-(2-(((3S,6S,7aS,8aR,9aR)-3-(3-(morpholine-4-carbonyl)azetidine-1-carbonyl)-5-oxodecahydro-1H-cyclopropa[d]pyrrolo[1,2-a]azocin-6-yl)carbamoyl)benzo[b]thiophen-5-yl)ethyl)phosphonic acid]

Second part, the molecule before the results:

Structure (SMILES)	IC50 [1]	IC50 [2]
O=C(N[C@H]1C[C@@H]2C[C@@H]2C[C@H]2CC[C@@H](C(=O)N3CC(C(=O)N4CCOCC4)C3)N2C1=O)c1cc2cc(C(F)P(=O)(O)O)ccc2s1 (stereo partly drawn) [Compound 18, (fluoro(2-(((3S,6S,7aS,8aR,9aR)-3-(3-(morpholine-4-carbonyl)azetidine-1-carbonyl)-5-oxodecahydro-1H-cyclopropa[d]pyrrolo[1,2-a]azocin-6-yl)carbamoyl)benzo[b]thiophen-5-yl)methyl)phosphonic acid]	3 to 30 µM	< 100 nM
C[C@@H]1[C@@H](n2ccnc2)CN1C(=O)[C@@H]1CC[C@@H]2C[C@H]3C[C@H]3C[C@H](NC(=O)c3cc4cc(C(F)(F)P(=O)(O)O)ccc4s3)C(=O)N21 [Compound 19, ((2-(((3S,6S,7aS,8aR,9aR)-3-((2R,3S)-3-(1H-imidazol-1-yl)-2-methylazetidine-1-carbonyl)-5-oxodecahydro-1H-cyclopropa[d]pyrrolo[1,2-a]azocin-6-yl)carbamoyl)benzo[b]thiophen-5-yl)difluoromethyl)phosphonic acid]	3 to 30 µM	< 100 nM
O=C(NC1C[C@@H]2C[C@@H]2C[C@H]2CC[C@@H](C(=O)N3CC(C(=O)N4CCOCC4)C3)N2C1=O)c1cc2cc(CP(=O)(O)O)ccc2s1 (stereo partly drawn) [Compound 20, ((2-(((3S,7aS,8aR,9aR)-3-(3-(morpholine-4-carbonyl)azetidine-1-carbonyl)-5-oxodecahydro-1H-cyclopropa[d]pyrrolo[1,2-a]azocin-6-yl)carbamoyl)benzo[b]thiophen-5-yl)methyl)phosphonic acid]	> 30 µM	1000 to 10000 nM
O=C(N[C@H]1C[C@H]2C[C@H]2C[C@H]2CC[C@@H](C(=O)N3CC(c4cccnc4)C3)N2C1=O)c1cc2cc([C@H](F)P(=O)(O)O)ccc2s1 [Compound 21, ((R)-fluoro(2-(((3S,6S,7aR,8aS,9aR)-5-oxo-3-(3-(pyridin-3-yl)azetidine-1-carbonyl)decahydro-1H-cyclopropa[d]pyrrolo[1,2-a]azocin-6-yl)carbamoyl)benzo[b]thiophen-5-yl)methyl)phosphonic acid]	3 to 30 µM	< 100 nM
O=C(N[C@H]1C[C@H]2C[C@H]2C[C@H]2CC[C@@H](C(=O)N3CC(c4cccnc4)C3)N2C1=O)c1cc2cc(CP(=O)(O)O)ccc2s1 [Compound 22, ((2-(((3S,6S,7aR,8aS,9aR)-5-oxo-3-(3-(pyridin-3-yl)azetidine-1-carbonyl)decahydro-1H-cyclopropa[d]pyrrolo[1,2-a]azocin-6-yl)carbamoyl)benzo[b]thiophen-5-yl)methyl)phosphonic acid]	> 30 µM	100 to 1000 nM
O=C(N[C@H]1C[C@H]2C[C@H]2C[C@H]2CC[C@@H](C(=O)N3CC(c4ccccn4)C3)N2C1=O)c1cc2cc(CP(=O)(O)O)ccc2s1 [Compound 23, ((2-(((3S,6S,7aR,8aS,9aR)-5-oxo-3-(3-(pyridin-2-yl)azetidine-1-carbonyl)decahydro-1H-cyclopropa[d]pyrrolo[1,2-a]azocin-6-yl)carbamoyl)benzo[b]thiophen-5-yl)methyl)phosphonic acid]	> 30 µM	100 to 1000 nM

Reference: patent US20250215030A1, “STAT MODULATORS AND USES THEREOF” (Recludix Pharma, Inc., priority 2022, published 2025)
